For test [1], the system named is human pancreatic AsPC1 tumor cell line. Description: Cell growth inhibition assay (alamar blue). Format: cell-based. As to conditions: AsPC1, 20 μM, 72 h. The method, then:
(§1) The compounds were screened in a growth inhibition assay at 20 μM over a 72 h period in a panel of cancer cell lines (lung-A549; pancreatic-Aspc1; colon-HT29; breast-MDAMB231; prostate-PC3; ovarian-SKOV3 and bone-U2OS) and the results are summarized in Table 2. […] This size effect was also observed with the urea compounds from the secondary amine (6j vs. 6l and 6k vs. 6m).
(§2) Cell Growth Inhibition Assay. Human lung A549, human pancreatic AsPC1, human colorectal HT-29, human breast MDA-MB-231, human prostate PC3, human ovarian SKOV3, and human osteosarcoma U2OS tumor cell lines were cultured in basal media containing 10% FBS and maintained in a 37° C. incubator with 5% CO2. All compounds were screened in 96 well microtiter plate format. In general, each cell line was plated at optimal assay density in 95 μl of propagation media in 96 well plates and incubated overnight. The next day, a standard alamar blue assay was performed (see below) on representative wells of each cell line for a Tz calculation. Subsequently, cells were treated in duplicate with a 5 μl volume of either vehicle only, positive controls etoposide and taxol, or test compounds at 20 μM (highest soluble compound concentration). The treated cells were incubated for 72 h and then assayed for growth by alamar blue assay. Briefly, 10 μl of reagent was added to each well and the plates returned to 37° C. After 3 h, fluorescence at 544ex/590em was measured using a SpectraMax M5 (Molecular Devices) plate reader. Growth is represented as a percentage of the control cells that were treated with vehicle only and % growth inhibition was determined using the NCI algorithm: Tz=number of untreated cells at zero time, C=Number of control cells at 72 h time, and T=number of compound treated cells at 72 h time; 100*([T−Tz]/[C−Tz]).

Test [2] relates to human ovarian SKOV3 tumor cell line. Description: Cell growth inhibition assay (alamar blue). As to conditions: SKOV3, 20 μM, 72 h. Format: cell-based. How it is done: as §1, §2
The test system of test [3] is human colorectal HT-29 tumor cell line. Description: Cell growth inhibition assay (alamar blue). As to conditions: HT29, 20 μM, 72 h. Format: cell-based. The method, then: as §1, §2
Test [4] concerns human breast MDA-MB-231 tumor cell line. Put plainly: Cell growth inhibition assay (alamar blue). Format: cell-based. As to conditions: MDA-MB-231, 20 μM, 72 h. How it is done: as §1, §2
Test [5] has as its system human prostate PC3 tumor cell line. Put plainly: Cell growth inhibition assay (alamar blue). Format: cell-based. The conditions noted are these: PC3, 20 μM, 72 h. How it is done:
as §1, §2

In test [6] the test system is human lung A549 tumor cell line. Description: Cell growth inhibition assay (alamar blue). The conditions noted are these: A549, 20 μM, 72 h. Format: cell-based. How it is done:
as §1, §2

In test [7] the test system is human osteosarcoma U2OS tumor cell line. Description: Cell growth inhibition assay (alamar blue). Format: cell-based. The conditions noted are these: 72 h. The method, then:
as §1, §2

In test [8] the test system is panel of cancer cell lines. Description: Growth inhibition assay, whole panel. Format: cell-based, human. As to conditions: 20 μM, 72 h. How it is done:
as §1, §2

Structures are written as SMILES.

The results in this text go back to patent publication US9353094B2, “Substituted quinoxalines as kinase inhibitors” (BOARD OF REGENTS OF THE UNIVERSITY OF NEBRASKA, priority 2010, dated 2016).

Turning to `O=C(Nc1ccc2nc(-c3ccco3)c(-c3ccco3)nc2c1)N1CCC(Cc2ccccc2)CC1` [6k], the “% Growth inhibition at 20 μM” value in test [1] was greater than 100%; in test [2], 47.6 ± 2.5%; in test [3], 55.2 ± 4.1%; in test [4], 90.8 ± 4.5%; in test [5] it was greater than 100%; in test [6], 93.1 ± 7.8%. In test [7], the “% Growth inhibition at 20 μM” value is listed as 80.3 ± 2.4%. Moreover, the “growth inhibition of the various cancer cell lines (in words)” value in test [8] is reported as “active”.

As to `O=C(Nc1ccc2nc(-c3ccco3)c(-c3ccco3)nc2c1)N1CCOCC1` [6m], the “% Growth inhibition at 20 μM” value in test [1] is “Inactive”; in test [2] it was “Inactive”; in test [3], 19.4 ± 3.6%; in test [4], 10.9 ± 5.0%; in test [5] it was 48.9 ± 7.5%; in test [6], 39.7 ± 12.8%. Moreover, the “% Growth inhibition at 20 μM” value in test [7] was “Inactive”. In addition, in test [8], the “growth inhibition of the various cancer cell lines (in words)” value was “active”.
